Columns and labels:
[1] = Average particle size (ζ-Average) and PDI by dynamic light scattering (Zetasizer Nano ZSP); type: physicochemical
Method in brief: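 Dynamic light scattering of the particles in PBS(−) gave both the polydispersity index and the ζ-Average mean size.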

[2] = siRNA/mRNA encapsulation rate by Ribogreen reagent (section IV); type: physicochemical; settings: for % siRNA encapsulation: F7siRNA-loaded LNP, 50:10:38.5:1.5, N/P ratio 6; for % mRNA encapsulation: FlucmRNA-loaded LNP, 50:10:38.5:1.5
Method in brief: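 Encapsulation % was calculated as (total − surface nucleic acid)/total × 100, with both values measured by RiboGreen fluorescence at 485/528 nm. Total RNA was read on LNPs lysed with 1% Triton X-100 at 1.2 μg/mL, and surface RNA on intact LNPs at 8 μg/mL in TE buffer. Concentrations came from a 0-2.5 μg/mL Triton-containing calibration curve.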

liver = assay: In vivo Fluc activity of FlucmRNA-loaded LNP by in vivo imaging, liver; settings: Balb/c mice, 6 hours; for Fluc activity in the liver, compared with CL15F6: 0.1 mg mRNA/kg, versus LNP comprising CL15F6 (Table 7); for Fluc Activity in liver: FlucmRNA-loaded LNP i.v. 0.1 mg mRNA/kg
Method in brief: (§1)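 Read-out is average radiance (p/s/cm2/sr, about 560 nm) from whole-animal imaging of liver and spleen 6 h post-dose, after tail-vein luciferin at 1.5 mg/mouse. Dosing was intravenous, 0.1 mg mRNA/kg, in 7-week-old female Balb/c mice.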

spleen = assay: In vivo Fluc activity of FlucmRNA-loaded LNP by in vivo imaging, spleen; settings: Balb/c mice, 6 hours; for Fluc Activity in spleen: FlucmRNA-loaded LNP i.v. 0.1 mg mRNA/kg; for Fluc activity in the spleen, compared with CL15F6: 0.1 mg mRNA/kg, versus LNP comprising CL15F6 (Table 7)
Method in brief: as §1

F7 = assay: In vivo F7 knockdown, plasma F7 enzyme activity (BIOPHEN FVII), Balb/c mice; settings: for knockdown activity, compared with MC3: F7siRNA-loaded LNP, versus LNP comprising MC3; for F7 enzyme activity (Ratio using MC3 as 1) / F7 enzyme activity (%): i.v. 0.025 mg siRNA/kg, plasma at 24 hours; for F7 enzyme activity (Ratio using MC3 as 1): relative plasma F7 activity of MC3 LNP as 1; for F7 enzyme activity (%): untreated mice as 100%
Method in brief: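 Plasma factor VII activity was read 24 h after a single intravenous 0.025 mg siRNA/kg dose of siRNA-loaded lipid nanoparticles in 5-week-old female Balb/c mice. Activity is relative to untreated animals (100%) and normalised to the MC3 nanoparticle benchmark (=1).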

[3] = Storage stability of FlucmRNA-loaded LNP at −80, 5, 25 and 40° C.; type: physicochemical; settings: for period for which quality remained good, −80° C.: maximum storage period 1 week; for period for which quality remained good, 5° C. / period for which quality remained good, 25° C. / period for which quality remained good, 40° C. (weeks): maximum storage period 5 weeks
Method in brief: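 Reported period is how long all three criteria hold: encapsulation rate at 80% or more, PDI of 0.2 or less, and mean particle size within +/−20 nm of day-of-preparation value. Particle size, PDI and nucleic acid encapsulation were tracked over time at storage temperatures of −80, 5, 25 and 40° C.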

[4] = F7siRNA-loaded LNP, 50:10:38.5:1.5, N/P ratio 6
[5] = FlucmRNA-loaded LNP, 50:10:38.5:1.5
[6] = FlucmRNA-loaded LNP, lipid:DSPC:cholesterol:DMG-PEG2K 50:10:38.5:1.5

Row | SMILES | PDI [1, 4] | ζ-Average (nm) [1, 4] [nm] | PDI [1, 5] | ζ-Average (nm) [1, 6] [nm] | % siRNA encapsulation [2] [%] | % mRNA encapsulation [2] [%] | Fluc activity in the liver, compared with CL15F6 (liver) | Fluc Activity in liver (liver) | Fluc Activity in spleen (spleen) | knockdown activity, compared with MC3 (F7) | F7 enzyme activity (Ratio using MC3 as 1) (F7) | period for which quality remained good, −80° C. [3] [week] | period for which quality remained good, 5° C. [3] [weeks] | period for which quality remained good, 25° C. [3] [weeks] | period for which quality remained good, 40° C. (weeks) [3] [weeks] | Fluc activity in the spleen, compared with CL15F6 (spleen) | F7 enzyme activity (%) (F7) | quality at production (storage stability criteria) ([3]; criteria: PDI 0.2 or less, encapsulation 80% or more)
1 | CCCCCCCCCCC(CCCCCCCCCC)C(=O)OCCCCCCC(O)(CCCCCCOC(=O)C(CCCCCCCCCC)CCCCCCCCCC)CCCCOC(=O)C1CCN(C)CC1 [CL15F 12-10] | 0.014 | 100.2 | 0.030 | 97.59 | 100.5 | 99.78 | higher Fluc activity | 4.33E+07 Avg Radiance [p/s/cm2/sr] | 5.58E+06 Avg Radiance [p/s/cm2/sr] | higher knockdown activity | 0.51 | 1 | 5 | 5 | 5 | – | – | –
2 | CCCCCCCC(CCCCC)C(=O)OCCCCCCC(O)(CCCCCCOC(=O)C(CCCCC)CCCCCCC)CCCCOC(=O)C1CCN(C)CC1 (stereo not shown) [CL15F 9-5] | 0.035 | 129.5 | 0.037 | 135.00 | 100.1 | 99.1 | – | 1.86E+06 Avg Radiance [p/s/cm2/sr] | 5.77E+06 Avg Radiance [p/s/cm2/sr] | – | 1.11 | 1 | 5 | 5 | 5 | higher Fluc activity | – | –
3 | CCCCCCCCC(CCCC)C(=O)OCCCCCCC(O)(CCCCCCOC(=O)C(CCCC)CCCCCCCC)CCCCOC(=O)C1CCN(C)CC1 (stereo not shown) [CL15F 10-4] | 0.021 | 126.8 | 0.030 | 146.10 | 100.3 | 98.7 | – | 2.07E+06 Avg Radiance [p/s/cm2/sr] | 3.97E+06 Avg Radiance [p/s/cm2/sr] | – | 2.00 | 1 | 5 | 5 | 5 | – | – | –
4 | CCCCCCCCCCCCCCC(C)C(=O)OCCCCCCC(O)(CCCCCCOC(=O)C(C)CCCCCCCCCCCCCC)CCCCN(CCC)CCC (stereo not shown) [CL4F 16-1] | 0.092 | 64.81 | 0.045 | 69.08 | 94.9 | 65.9 | – | 8.52E+06 Avg Radiance [p/s/cm2/sr] | 1.93E+06 Avg Radiance [p/s/cm2/sr] | – | – | – | – | – | – | – | 103.6 | Does not meet the criteria for “good” at production
5 | CCCCCCCCCCCC(CCC)C(=O)OCCCCCCC(O)(CCCCCCOC(=O)C(CCC)CCCCCCCCCCC)CCCCOC(=O)C1CCN(C)CC1 (stereo not shown) [CL15F 13-3] | 0.081 | 126.0 | 0.048 | 142.90 | 100.3 | 98.62 | – | 3.51E+06 Avg Radiance [p/s/cm2/sr] | 6.11E+06 Avg Radiance [p/s/cm2/sr] | – | 1.11 | 0 | 5 | 5 | 5 | higher Fluc activity | – | –
6 | CCCCCCCC(CCCCCCC)C(=O)OCCCCCCC(O)(CCCCCCOC(=O)C(CCCCCCC)CCCCCCC)CCCCOC(=O)C1CCN(C)CC1 [CL15F 9-7] | 0.023 | 103.1 | 0.010 | 107.60 | 100.3 | 99.5 | higher Fluc activity | 6.76E+06 Avg Radiance [p/s/cm2/sr] | 4.23E+06 Avg Radiance [p/s/cm2/sr] | higher knockdown activity | 0.60 | 1 | 5 | 5 | 5 | – | – | –
7 | CCCCCCCCCC(CCCCCCCCC)C(=O)OCCCCCCC(O)(CCCCCCOC(=O)C(CCCCCCCCC)CCCCCCCCC)CCCCN(CCC)CCC [CL4F 11-9] | 0.009 | 90.93 | 0.014 | 81.13 | 100.1 | 99.8 | – | 6.86E+07 Avg Radiance [p/s/cm2/sr] | 1.19E+06 Avg Radiance [p/s/cm2/sr] | – | – | 1 | 5 | 5 | 5 | – | 47.7 | –
8 | CCCCCCC(CCCCCC)C(=O)OCCCCCCC(O)(CCCCCCOC(=O)C(CCCCCC)CCCCCC)CCCCOC(=O)C1CCN(C)CC1 [CL15F 8-6] | 0.056 | 121.2 | 0.011 | 132.00 | 100.2 | 99.2 | – | 1.92E+06 Avg Radiance [p/s/cm2/sr] | 5.02E+06 Avg Radiance [p/s/cm2/sr] | – | 1.60 | 1 | 5 | 5 | 5 | – | – | –
9 | CCCCCC(CCCCC)C(=O)OCCCCCCC(O)(CCCCCCOC(=O)C(CCCCC)CCCCC)CCCCOC(=O)C1CCN(C)CC1 [CL15F 7-5] | 0.039 | 180.6 | 0.007 | 196.00 | 98.8 | 97.6 | – | 2.15E+06 Avg Radiance [p/s/cm2/sr] | 1.37E+07 Avg Radiance [p/s/cm2/sr] | – | 1.74 | 0 | 5 | 5 | 5 | higher Fluc activity | – | –

From patent US12458605B2, “Lipid nanoparticle” (National University Corporation Hokkaido University, priority 2020, dated 2025)
